According to patent publication US6448256B1, “Antibiotic prodrugs” (University of Massachusetts, priority 1999, dated 2002):
Values after ≈ are worked out from the molar mass of the structure shown. Values joined by “and” are separate entries in the source; they are usually repeats but may differ in a detail not shown here. Identical values can stand only once. Like-named read-outs stand apart in the source and are kept apart here.

How the values were obtained:
B. subtilis = experiment: MIC against B. subtilis; format: cell-based; conditions: Bacillus subtilis, Table 6; read-out: MIC B. subtilis
Description: (§1) To further investigate the antibacterial and/or DNA pol III inhibitory activity of various drug compounds, various ester-containing moieties N-linked to the EMAU core were produced as described in Example 1. These prodrugs were assayed for inhibition of B. subtilis DNA pol III and antibiotic activity against a number of bacteria.
(§2) The minimal inhibitory concentrations (MICs) of the four N3-substituted agents and EMAU were determined for B. subtilis (BS), methicillin-sensitive and resistant S. aureus (SA & MRSA), vancomycin-sensitive and resistant E. fecalis (EF& VREF), vancomycin-resistant E. fecium (VREF*), and E. coli (EC) as a Gram-negative control.

S. aureus [1] = experiment: MIC against S. aureus (methicillin-sensitive); format: cell-based; conditions: Staphylococcus aureus, read-out: MIC S. aureas
Description: as §1, §2

[2] = tested on: S. aureus (methicillin-sensitive Smith strain); experiment: ip/ip mouse protection against lethal S. aureus infection; format: in vivo, mice; design: mice protected from death: dose or concentration left out as unconfirmed; conditions: for animals protected from death: 10 mg/kg, ten animals
Description: Step 1: Screening—Each candidate prodrug is screened for activity in an ip/ip S. aureus protection model. Candidates that display efficacy equivalent to that of HB-EMAU and HB-IMAU are selected for advanced pharmacokinetic analysis and application in the more relevant mouse thigh model of infection.
The efficacy of the propyl derivatives was tested against murine staphylococcal infection in vivo. A simple “ip/ip” system was used, in which 20 gram mice (10 each) were injected ip (intraperitoneally) with a lethal dose (2.3×10^7 CFU) of the methicillin-sensitive Smith strain of S. aureus. The mice were then immediately injected ip with the antibiotic agent as a 1:9 mixture of DMSO:peanut oil. Vancomycin was used as the positive control drug.
Both hydroxybutyl compounds were tested at 10 mg/kg in the mouse protection experiment against lethal S. aureus infection described in Example 4 above.

E. fecalis = experiment: MIC against E. fecalis; format: cell-based; conditions: Table 6; read-out: MIC E. fecalis
Description: as §1, §2

S. aureus [3] = experiment: Bactericidal activity (killing) against S. aureus; format: cell-based; conditions: 2, 4, and 8× MIC, killing continued for 24 hours
B. subtilis DNA pol III = B. subtilis DNA pol III (Bacillus subtilis, UniProt P13267); experiment: Inhibition of B. subtilis DNA pol III (Ki); format: biochemical
Description: as §1
The competitive inhibitor constants (Ki) of selected EMAU compounds were determined with three different pol Ills: the pol III enzyme from Bacillus subtilis (BS pol III), and the pol III enzymes of the clinically relevant pathogens, Enterococcus fecalis (EF pol III) and Staphylococcus aureus (SA pol 111).

[4] = Plasma pharmacokinetics after intravenous administration to mice; format: in vivo; conditions: for half-life: mouse, plasma, iv, 25 mg/kg
Description: (d) Elimination halfife and apparent volume of distribution. An appropriate dose of each agent (the maximum permitted by the results of the above dose/toxicity studies) is injected via the tail vein to a series of mice (e.g., 12). At specific times following injection (e.g., 10, 20, 30, 45, 90, and 150 minutes), mice (e.g., a pair) are restrained in DecapiCones and decapitated, and their blood collected individually by exsanguination into a sterile test tube.
The blood samples are centrifuged to yield clear plasma (yield: 0.4-0.6 ml per mouse). Approximately 0.2 ml of the plasma sample are used for HPLC analysis, using conditions established herein for quantitation of the compound. The individual plasma levels for each time point are averaged, and the data are analyzed to estimate Vd and half-life by established methods (Gibaldi, M. and D. Perrier. Pharmacokinetics. Marcel Dekker, Inc., New York, 1975).
Solutions of Val-B-EMAU in saline were next injected into the tail veins of mice at a dose of 25 mg/kg body weight. Animals were sacrificed at various times after dosing, and plasma was isolated and subjected to HPLC analysis.
Each value plotted in FIG. 3 represents the average of four measurements, each in a different animal.

Solubility in water = format: physicochemical; conditions: 25° C.
Excerpt: The prodrug 3-(L-valylbutyl)-EMAU (Val-B-EMAU, 4a) was synthesized as a hydrochloride. The structure was confirmed by NMR. The compound had high solubility in water. […] Two different synthesis methods were used.

[5] = Prodrug conversion in mouse plasma in vitro (HPLC); format: in vitro ADME; conditions: mouse
Description: The conversion rate of prodrugs can be measured by first establishing a reverse phase HPLC method for the detection of both prodrug and drug in a biological sample such as plasma or serum. A stock solution of prodrug, usually in saline, is diluted 1:5 in animal plasma or saline. […] If necessary, the sample can be thawed in a 37° C. water bath. Aliquots of the diluted sample are taken at 15, 30, 45, 60, 90, 120, and 180 minutes. Longer time points are usually needed for saline solutions because the rates of spontaneous hydrolysis are much longer than for enzyme-catalyzed hydrolysis. The aliquots are analyzed at a 1:10 dilution using HPLC, and the fraction of prodrug which has been converted at each time point calculated.
The rate of formation of the drug and the rate of decay of the prodrug had doubling and half-life times, respectively, of about 30 minutes. In contrast, the estimated half-life of Val-B-EMAU in physiological saline at 37° C. was greater then 5000 hours. The mechanism for the decomposition of Val-B-EMAU by plasma is presumed to involve esterases in the circulation.
To further define the conversion rate of Val-B-EMAU (4a), the prodrug was incubated in 80% mouse plasma.

[6] = Plasma pharmacokinetics after oral administration to mice; format: in vivo
Description: (e) Uptake from subcutaneous (sc), intraperitoneal (ip), and oral (Po) routes, Oral dosing can be performed by gavage with a small stomach tube to DecapiCone-restrained animals. […] At specific times following administration (e.g., 15, 30, 60, 90, 150 and 240 minutes), two mice are sacrificed and their plasma samples prepared and analyzed by HPLC as described above in (d). Following decapitation, the site of drug application in each animal's carcass is dissected and inspected visually for evidence of precipitation.
Each value plotted in FIG. 4 is an average of two measurement, each in a different animal.

S. aureus [7] = experiment: Mouse thigh infection model; format: in vivo, mice; conditions: ip in saline, 40 mg/kg every four hours
Excerpt: The mouse thigh infection model has been pioneered and used by Craig and colleagues (Craig, W. A., Redington, J. and S. C. Ebert (1991) J. Antimicr. Chemother. 27:Suppl C, 29-40; Leggett, J. E., Ebert, S., Fantin, B. and W. A. Craig (1991) Scand. J. Inf. Dis. 74:179-184). It represents a rational, flexible, cost-effective, and reproducible experimental approach for predicting the efficacy of a bacterial infection in a human patient. It is particularly useful in the present invention, because it is adaptable to the use of clinically relevant strains of Staphylococcus and Enterococcus.
Mice are made neutropenic to render them susceptible to infection with a wide variety of bacteria. […] The infected thigh of each animal is homogenized in sterile saline, and the bacterial concentration in the homogenate is determined by dilution and plating. […]
Testing can be carried out as follows. […] Treatment with the test agent and the positive control agent (vancomycin) is initiated at 2 hours post-infection, using a route (Po, ip, or sc), schedule, and dosing regimen determined by the agent's in vitro potency and specific pharmacokinetic properties.
The compounds are given by ip injection of 0.05 ml of a saline solution. […] Results are expressed as the log reduction in bacterial growth as a fraction of that in vehicle-treated animals.

[8] = Table 6, read-out: Ki, inhibition constant vs. B. subtilis DNA pol III

B. subtilis DNA pol III, sequence (P13267 whole entry): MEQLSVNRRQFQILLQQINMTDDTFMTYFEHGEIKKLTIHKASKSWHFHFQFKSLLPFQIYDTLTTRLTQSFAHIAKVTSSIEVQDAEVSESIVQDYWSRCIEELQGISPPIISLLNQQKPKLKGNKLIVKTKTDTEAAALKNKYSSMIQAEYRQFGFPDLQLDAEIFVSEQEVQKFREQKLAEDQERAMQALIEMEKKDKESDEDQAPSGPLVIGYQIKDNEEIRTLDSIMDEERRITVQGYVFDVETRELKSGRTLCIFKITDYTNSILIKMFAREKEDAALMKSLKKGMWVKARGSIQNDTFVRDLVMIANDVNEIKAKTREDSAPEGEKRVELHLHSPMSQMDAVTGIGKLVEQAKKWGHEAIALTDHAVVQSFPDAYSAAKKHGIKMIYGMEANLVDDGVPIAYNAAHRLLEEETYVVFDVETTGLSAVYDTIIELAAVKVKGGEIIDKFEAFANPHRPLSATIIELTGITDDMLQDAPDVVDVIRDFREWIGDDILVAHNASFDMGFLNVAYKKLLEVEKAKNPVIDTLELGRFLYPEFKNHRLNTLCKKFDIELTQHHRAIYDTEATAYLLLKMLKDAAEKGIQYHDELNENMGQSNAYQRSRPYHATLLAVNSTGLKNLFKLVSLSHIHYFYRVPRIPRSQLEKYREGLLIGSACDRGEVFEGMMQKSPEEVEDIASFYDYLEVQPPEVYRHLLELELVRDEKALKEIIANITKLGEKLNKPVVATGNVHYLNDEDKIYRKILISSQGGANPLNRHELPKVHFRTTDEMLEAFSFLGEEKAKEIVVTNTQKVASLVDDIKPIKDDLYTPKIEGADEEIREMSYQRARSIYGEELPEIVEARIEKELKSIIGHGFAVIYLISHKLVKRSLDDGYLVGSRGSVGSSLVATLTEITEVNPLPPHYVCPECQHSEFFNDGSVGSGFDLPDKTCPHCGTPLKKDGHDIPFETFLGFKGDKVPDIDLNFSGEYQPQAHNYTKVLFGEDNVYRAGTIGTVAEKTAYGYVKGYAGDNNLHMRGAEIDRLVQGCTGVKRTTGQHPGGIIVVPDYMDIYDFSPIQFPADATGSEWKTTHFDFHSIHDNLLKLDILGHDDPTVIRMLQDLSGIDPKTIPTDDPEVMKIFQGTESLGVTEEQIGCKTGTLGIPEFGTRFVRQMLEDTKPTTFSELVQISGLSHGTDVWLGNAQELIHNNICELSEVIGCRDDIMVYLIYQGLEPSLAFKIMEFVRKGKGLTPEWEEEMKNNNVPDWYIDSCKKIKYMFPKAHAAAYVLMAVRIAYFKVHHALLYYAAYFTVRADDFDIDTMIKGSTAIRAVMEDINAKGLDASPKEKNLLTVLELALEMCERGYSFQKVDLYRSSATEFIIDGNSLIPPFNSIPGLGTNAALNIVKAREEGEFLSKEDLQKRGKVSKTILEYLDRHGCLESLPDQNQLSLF

Row | Structure (SMILES) | MIC (B. subtilis) [µg/mL] | MIC (S. aureus [1]) [µg/mL] | animals protected from death ([2]; four day experiment) | MIC (E. fecalis) [µg/mL] | bactericidal for S. aureus (S. aureus [3]) | Ki (B. subtilis DNA pol III; [8]) [nM] | time at which HB-EMAU concentration peaked ([4]; after iv Val-B-EMAU 25 mg/kg (FIG. 1)) | half-life ([4]; after iv Val-B-EMAU 25 mg/kg (FIG. 1), read-out: half life of HB-EMAU) [min] | half-life ([4]; after iv Val-B-EMAU (4a) 25 mg/Kg (FIG. 3), average of four measurements, read-out: elimination half-life of HB-EMAU) [min] | solubility (Solubility in water) [µg/mL] | doubling time of formation of the drug [5] | area under the curve for HB-EMAU, estimated ([6]; HB-EMAU administered directly) [%] | peak concentration of HB-EMAU ([6]; mice, after oral VB-EMAU 100 mg/Kg) | plasma HB-EMAU at four hours after administration ([6]; mice, after oral Val-B-EMAU (4a) 100 mg/Kg) | time at which plasma level of HB-EMAU peaked ([6]; mice, after oral Val-B-EMAU (4a) 100 mg/Kg in physiological saline (FIG. 4)) [min] | Ki (B. subtilis DNA pol III; Table 1, read-out: Ki B. subtilis pol III) [nM] | protection of mice ([2]; 20 mg/kg, positive control) | mice protected from death ([2]; control drug, four day experiment) | log reduction in S. aureus proliferation compared with control thighs (S. aureus [7])
1 | Cc1ccc(Nc2cc(=O)n(CCCCO)c(=O)[nH]2)cc1I [HB-IMAU] | < 3.1 | 6 (≈ 14.4 µM) | nine of ten animals | 6 (≈ 14.4 µM) | bactericidal | 220 |  |  |  |  |  |  |  |  |  |  |  |  | 
2 | CCc1cc(Nc2cc(=O)n(CCCCO)c(=O)[nH]2)ccc1C [HB-EMAU] | < 3.1 | 6 (≈ 18.9 µM) | all ten animals | 6 (≈ 18.9 µM) | bactericidal | 180 | about 20 minutes | ~43 | 15.6 | ~30 (≈ 94.5 µM) | about 30 minutes | 0.1 | 11.2 μM and 3.5 μg/ml | no detectable | 60 | 190 |  |  | 
3 | CN[C@H](CC(C)C)C(=O)N[C@H]1C(=O)N[C@@H](CC(N)=O)C(=O)N[C@H]2C(=O)N[C@H]3C(=O)N[C@H](C(=O)N[C@H](C(=O)O)c4cc(O)cc(O)c4-c4cc3ccc4O)[C@H](O)c3ccc(c(Cl)c3)Oc3cc2cc(c3O[C@@H]2O[C@H](CO)[C@@H](O)[C@H](O)[C@H]2O[C@H]2C[C@](C)(N)[C@H](O)[C@H](C)O2)Oc2ccc(cc2Cl)[C@H]1O [vancomycin, reference compound] |  |  |  |  |  |  |  |  |  |  |  |  |  |  |  |  | protected all mice | all ten mice | 2-4 log
